According to US20250040914A1, “SYSTEMS AND METHODS FOR FOCUSED ULTRASOUND-ENABLED LIQUID BIOPSY” (Washington University, priority 2021, published 2025):

Assay: FUS-BBBO delivery of Evans Blue to the mouse brain under closed-loop feedback control (fluorescence imaging of brain slices)
Format: in vivo, Swiss mice
Details: for drug delivery area (average): area with fluorescence higher than 10 dB above background of brain tissue; for fluorescence intensity of the delivered Evans Blue, increase relative to the 0.5 dB group: brainstem ROI, 30 μL of 4% Evans Blue i.v. after FUS, 30 min after sonication
Experimental: 25 Swiss mice (8-10 weeks, ˜25 g body weight, female, Charles River Laboratory, Wilmington, MA, USA) were randomly assigned into five groups (n=5 for each group) to evaluate five different TCLs using the disclosed algorithm. Swiss mice (8-10 weeks, ˜25 g body weight, female, Charles River Laboratory, Wilmington, MA, USA) were housed in a room maintained at 22° C. and 55% relative humidity, with a 12-h/12-h light/dark cycle and access to standard laboratory chow and water. […] Four Swiss mice were selected to evaluate an existing closed-loop feedback control algorithm with the TCL defined based on the detection of sub-harmonics. During all experiments, mice were anesthetized with 1.5-2% isoflurane and stabilized using a stereotaxic apparatus (Kopf, Tujunga, CA, USA). A heating pad with a temperature kept at ˜38° C. was used to maintain the mouse's body temperature. Mice were prepared for FUS sonication by removing fur on top of the head with a depilatory cream (Nair, Church & Dwight Co., NJ, USA) and coupled to a water container using ultrasound gel. A catheter was placed into the tail vein for microbubbles and Evans blue injection.
A microbubble contrast agent (Definity, Lantheus Medical Imaging, North Billerica, MA) was diluted using sterile saline to a final concentration of approximately 8×10^8 microbubbles per mL. A bolus of diluted microbubble contrast agent (volume=30 μL) was injected intravenously into each mouse through a tail vein catheter. The injection was performed using a computer-controlled syringe pump (NE-1600; New Era Pump Systems Inc.). Microbubbles infusion was started 15 s before FUS sonication to allow microbubbles to flow through the tail vein catheter and reach the mouse brain. The infusion lasted until the end of sonication at a constant rate of 12.8 μL/min. All mice were treated by FUS with output pressure controlled in real-time using the disclosed PCD-based closed-loop feedback control algorithm. The treatment procedure followed a two-step process. A representative example of sonication sequence and detected cavitation level is illustrated in FIG. 20.
A baseline stable cavitation (SC) level was established for each mouse with dummy FUS sonication after injecting the microbubbles. FUS sonication was performed using a pulse repetition frequency of 2 Hz, a pulse length of 6.7 ms burst (i.e., duty cycle: 1.33%), and a sonication duration of 5 s. The output pressure of FUS was 0.2 MPa (all pressures reported were the peak negative pressures calibrated in water). This pressure was selected because it was the lowest pressure at which the microbubble cavitation signal was higher than the noise level without microbubble injection and lower than the pressures needed to induce BBB disruption. During the sonication by each FUS pulse, acoustic emission from microbubbles was recorded by the PCD transducer and processed by a Fast-Fourier transform (FFT) algorithm. SC level was calculated by summing the magnitude of the spectrum within a ±0.02 MHz bandwidth at the third harmonic (i.e., 4.5 MHz) of the FUS transducer. The third harmonic emission was chosen because it was at the center frequency of the PCD transducer. Ten PCD signals were acquired, and the average of SC levels calculated from these ten signals was used to define the baseline SC level.
After establishing the baseline SC level as described above, the mice were further subjected to FUS sonication using the FUS-BBBO with real-time feedback control disclosed herein. During FUS sonication with microbubbles infusion, cavitation was monitored by PCD in real-time, and a custom closed-loop feedback control algorithm was used to control the SC level to be at different TCLs defined to be 0.5 dB, 1 dB, 2 dB, 3 dB, or 4 dB above the baseline SC level. […]

Q: For `Cc1cc(-c2ccc(/N=N/c3ccc4c(S(=O)(=O)O)cc(S(=O)(=O)O)c(N)c4c3O)c(C)c2)ccc1/N=N/c1ccc2c(S(=O)(=O)O)cc(S(=O)(=O)O)c(N)c2c1O` [Evans Blue], which “drug delivery area (average)” value (TCL 0.5 dB) is on record?
A: 9.6 mm^2

Q: And the “fluorescence intensity of the delivered Evans Blue, increase relative to the 0.5 dB group” value (TCL 1 dB above baseline SC level)?
A: 2.4 fold

Q: What about the “fluorescence intensity of the delivered Evans Blue, increase relative to the 0.5 dB group” value (TCL 2 dB above baseline SC level) of the same compound?
A: 5.3 fold

Q: What about the “fluorescence intensity of the delivered Evans Blue, increase relative to the 0.5 dB group” value (TCL 3 dB above baseline SC level) of the same compound?
A: 8.2 fold

Q: And the “drug delivery area, increase as TCL was raised from 0.5 dB to 3 dB” value (TCL 3 dB versus 0.5 dB)?
A: 11.7 fold

Q: What about the “drug delivery area (average)” value (TCL 3 dB) of the same compound?
A: 112.8 mm^2

Q: And the “fluorescence intensity and drug delivery area with respect to the values at a TCL of 3 dB” value (TCL 4 dB)?
A: slightly decreased
